How the values were obtained:
[1] = test system: guinea pig oxyphiles; assay: Inhibition of activation of oxyphiles (PAF-induced release of active oxygen, luminol chemiluminescence); assay type: cell-based, Hartley guinea pigs; settings: Cavia porcellus, 5 min; PAF stimulation, chemiluminescence for 5 minutes; read-out: IC50 (x 10^-6 M)
Procedure: One mg of polymyxin B (manufactured by Sigma Co.) was intra-abdominally administered to Hartley guinea pigs (6-week age). The chemical was administered to the animals once a week, for 6 to 8 weeks. After the final administration of the chemical polymyxin B, 50 ml of PBS (phosphate-buffered saline) was injected into the abdomen of each guinea pig, and the abdominal cells were collected. These were centrifuged at 800 rpm for 5 minutes to collect the precipitate of abdominal infiltrated cells. The precipitated cells were suspended in 1 ml of 40 % Ficol solution (40 % Ficol (manufactured by Pharmacia Co.) in HBSS (Hanks' […] salt solution)), and stratified over a discontinuous density gradient of Ficol (40 to 90 %). This was centrifuged at 1500 rpm for 40 minutes to collect the oxyphile fraction. This operation generally produced oxyphiles having a purity of 99 % or higher. The cells were washed two times with an RPMI1640 medium (0.2 % BSA (bovine serum albumin), manufactured by Boehringer Mannheim Co.), then suspended to have a predetermined cell concentration, and used in the intended experiments. (B) Effect of Inactivating Oxyphiles (Effect of inhibiting the activity of guinea pig oxyphiles to release active oxygen):
2 µl of each chemical to be tested and 180 µl of the cell suspension were added to each well of a 96-well multiwell plate (white plate for chemiluminometry) which had been previously kept at 37°C, and kept therein at 37°C for 10 minutes. After thus kept, 20 µl of PAF (platelet activating factor) (x -10^-6 M) and 20 µl of a luminol solution were added thereto, and immediately the intensity of chemiluminescence of the system was measured, using […]. The data of chemiluminescence for 5 minutes were obtained, from which was calculated the 50 % inhibition concentration of the compound tested (IC50).

[2] = test system: Bovine Phosphodiesterase; assay: Phosphodiesterase inhibiting activity (cAMP substrate, remaining cAMP measured by HPLC); assay type: biochemical; settings: for IC50: inhibition of phosphodiesterase, from Table 2 data, read-out: IC 50 values
Procedure: Fifity g of the respiratory smooth muscle of a sacrificed cow was cut into pieces with scissors and a knife, then suspended in 2 mM EDTA-containing 20 mM Tris buffer (pH 7.4) of 5 times by volume the pieces, and homogenized with a polytron homogenizer to prepare a crude phosphodiesterase liquid. This was centrifuged at 10,000 x g for 20 minutes to collect the supernatant, which is a soluble, crude phosphodiesterase liquid. This was put into a Q-Sepharose fast-flow column (100 ml), washed with a buffer, and then eluted with sodium acetate having a gradient concentration of from 50 mM to 1 M. The phosphodiesterase-containing active fraction eluted with 0.7 M sodium acetate was collected.
To determine its phosphodiesterase activity, the enzyme was reacted with a substrate, 3',5'-cyclic adenosine monophosphate (cAMP, manufactured by Sigma Co. in US). After the reaction, the remaining cAMP was measured through high-performance liquid chromatography.
0.02 mg/ml of cAMP, 2.5 mM dithiothreitol, 6 mM magnesium chloride, 50 mM Tris buffer (pH 8.0), 1 µl of the phosphodiesterase liquid prepared above, and a varying amount of the compound of the invention were put into plastic tubes having a volume of 0.3 ml, to which was added water to have a final volume of 200 µl. The mixture was stirred, and incubated at 37°C for 60 minutes. 20 µl of an aqueous solution of 200 mM tetraethylenediamine was added to each tube to stop the reaction. 20 µl of the resulting reaction mixture was subjected to high-performance liquid chromatography (ODS column of 3.9 mm⌀ x 150 mm, manufactured by Waters Co. in US), through which the remaining cAMP was measured. From the data, obtained was the activity of the compound of the invention of inhibiting the enzyme phosphodiesterase, as in Table 2.

[3] = Solubility of the isolated substances in solvents; assay type: physicochemical; settings: qualitative; for Solubility: various solvents
Procedure: These pure NA23063A, NA23063B1, NA23063B2, NA23063C and NA23063D were tested for their appearance, molecular weight, solubility, Rf value in silica gel thin-layer column chromatography, UV absorption spectrum, IR absorption spectrum, ^1H-NMR spectrum, and ^13C-NMR spectrum. The physicochemical properties of NA23063A, B1, B2, C and D thus obtained have been shown hereinabove.

[4] = test system: bronchial smooth muscle; assay: Inhibition of contraction of bronchial smooth muscle (histamine-contracted tracheal strips in an organ bath); set-up: species or system Hartley guinea pigs; settings: 10 µg/ml; contraction with 10 µM histamine = 100 %, relaxation with papaverine = 0 %
Procedure: The tracheae were taken out of male Hartley guinea pigs having a body weight of from 400 to 500 g. These were cut off at the cartilage opposite to the smooth muscle, and sliced into small pieces having a width of 1 mm. Five of these pieces were bound with silk thread into one bundle, of which the both ends were ligated with machine cotton. This was then suspended in an organ bath with applying thereto a tension of 0.5 g. The temperature of the bath was 37°C, and the bath contained a nutrient liquid of Krebs-Hanseleit buffer (118 mM NaCl, 4.6 mM KCl, 1.1 mM MgSO4·7H2O, 1.8 mM CaCl2·2H2O, 24.9 mM NaHCO3, 1.0 mM KH2PO4·2H2O, 11.1 mM glucose). To the nutrient liquid, added was 5 µM indomethacin. The bath was well aerated with a mixed gas of 95 % O2 + 5 % CO2. The suspended tissue was incubated in the organ bath for about 2 hours for habituation in the external environment. Then, this was contracted with 10 µM histamine. After the contraction was stabilized, NA23063D was added to the bath to have a concentration of 0.1, 0.3, 1.0, 3.0, 10 and 30 µg/ml. The reaction in the bath comprising the varying amount of NA23063D was continued until the relaxation of the tissue became stabilized. When no relaxation was admitted in 10 minutes after the addition of the chemical, NA23063D, the concentration of the chemical was increased to the next stage. […]

[5] = test system: respiratory tract resistance; assay: Inhibition of immediate allergic respiratory stenosis in ovalbumin-sensitized asthmatic animal models; assay type: in vivo, Brown-Norway (BN) rats; settings: intravenous administration of 30 mg/kg, rat models, relative to control maximum resistance after antigen
Procedure: An antigen ovalbumin (OA) was administered to male Brown-Norway (BN) rats to prepare actively-sensitized animal models. To sensitize the animals, 1 ml of the antigen solution (100 mg/ml of Al(OH)3 and 1 mg/ml of OA in aqueous 0.9 % NaCl solution) was subcutaneously administered to the back of each rat. On the other hand, inactivated cells of Bordetella pertussis were suspended in an aqueous solution of 0.9 % NaCl to have a concentration of 1.0 x 10^10 cells/ml. 0.25 ml of the cell suspension was intra-abdominally administered to each rat along with the antigen sensitization. The administration was repeated three times in all, on the 1st, 7th and 14th days. […]
Those actively-sensitized BN rats were anesthetized with sodium pentobarbiturate (50 mg/kg, i.p.), into which was inserted a polyvinyl chloride tube cannula through the respiratory tract. Each rat was purged with air through the cannula, and the respiratory tract resistance was monitored. […] In addition, an additional cannula was inserted into the left common carotid artery of each rat, through which the blood pressure and the heart beat of the rat being tested were monitored. […] On the basis of the time (0, zero) at which the antigen was challenged, the variation (increase or decrease) in the respiratory tract resistance of each rat was recorded at regular intervals before and after the administration of the antigen. […]

| Solubility in dimethylsulfoxide (DMSO) [3] | Structure (SMILES) | IC50 [1] [nM] | Inhibiting Activity (%) ([2]; Concentration 0.78 µg/ml) | Inhibiting Activity (%) ([2]; Concentration 1.56 µg/ml) | Inhibiting Activity (%) ([2]; Concentration 3.13 µg/ml) | Inhibiting Activity (%) ([2]; Concentration 6.25 µg/ml) | IC50 [2] [nM] | Solubility [3] | Inhibiting Activity (%) ([2]; Concentration 0.39 µg/ml) | relaxation of the bronchial smooth muscle [4] [%] | % inhibition (decrease in the respiratory tract resistance) [5] [%] |
| --- | --- | --- | --- | --- | --- | --- | --- | --- | --- | --- | --- |
|  | O=c1c(-c2ccc(Oc3cc(-c4coc5cc(O)cc(O)c5c4=O)ccc3O)cc2)coc2cc(O)cc(O)c12 [NA23063A] | 100 | 43.5 | 57.8 | 60.5 | 79.5 | 2100 | soluble in lower alcohols, acetone and ethyl acetate, but insoluble in hexane, petroleum ether and water |  |  |  |
| soluble | O=c1c(-c2ccc(O)c(-c3cc(-c4coc5cc(O)cc(O)c5c4=O)ccc3O)c2)coc2cc(O)ccc12 [NA23063D] | 1100 | 30.7 | 34.6 | 44.8 | 61.0 | 7900 | soluble in lower alcohols, acetone, ethyl acetate and dimethylsulfoxide, but insoluble in hexane, petroleum ether and water | 18.9 | 61 | 54 |
|  | O=c1c(-c2ccc(O)c(Oc3ccc(-c4coc5cc(O)cc(O)c5c4=O)cc3)c2)coc2cc(O)ccc12 [NA23063B2] |  | 28.1 | 38.2 | 56.3 | 64.9 | 4900 | soluble in lower alcohols, acetone, ethyl acetate and dimethylsulfoxide, but insoluble in hexane, petroleum ether and water | 17.5 |  |  |
|  | O=c1c(-c2ccc(O)c(-c3cc(-c4coc5cc(O)cc(O)c5c4=O)ccc3O)c2)coc2cc(O)cc(O)c12 [NA23063C] | 320 | 57.7 | 66.5 | 77.6 | 83.8 | 1300 | soluble in lower alcohols, acetone, ethyl acetate and dimethylsulfoxide, but insoluble in hexane, petroleum ether and water | 26.4 |  |  |
|  | O=c1c(-c2ccc(Oc3cc(-c4coc5cc(O)cc(O)c5c4=O)ccc3O)cc2)coc2cc(O)ccc12 [NA23063B1] |  | 28.1 | 38.2 | 56.3 | 64.9 | 4900 | soluble in lower alcohols, acetone, ethyl acetate and dimethylsulfoxide, but insoluble in hexane, petroleum ether and water | 17.5 |  |  |
